Consider 2 compounds from ChEMBL document CHEMBL3045467, “Major alkaloidal constituent from Impatiens niamniamensis seeds as antihyperglycemic agent” (2011).

Type in all cases: functional
Parameters in all cases: scale not given: the % may be the effect or the level left

The subject of assay [1] is Rattus norvegicus. Put plainly: Antihyperglycemic activity in albino Rattus norvegicus Sprague-Dawley (rat) streptozotocin-induced diabetic model assessed as reduction of AUC of blood glucose level at 50 mg/kg, po after 24 hr.
For assay [2], the system named is Rattus norvegicus. Kind of assay: Antihyperglycemic activity in albino Rattus norvegicus Sprague-Dawley (rat) streptozotocin-induced diabetic model assessed as reduction of AUC of blood glucose level at 50 mg/kg, po after 5 hr.
Assay [3] concerns Rattus norvegicus. Kind of assay: Antihyperglycemic activity in albino Rattus norvegicus Sprague-Dawley (rat) streptozotocin-induced diabetic model assessed as reduction of AUC of blood glucose level at 100 mg/kg, po after 24 hr.
Assay [4] concerns Rattus norvegicus. Kind of assay: Antihyperglycemic activity in albino Rattus norvegicus Sprague-Dawley (rat) streptozotocin-induced diabetic model assessed as reduction of AUC of blood glucose level at 100 mg/kg, po after 5 hr.

The structures appear in SMILES notation.

In the case of `C[N+](C)(C)[C@@H](Cc1c[nH]c2ccccc12)C(=O)[O-]` [Hypaphorine], the Activity in the assay on Rattus norvegicus [1] is listed as 20.4%; with Rattus norvegicus [2] it was 27.8%.
`CN(C)C(=N)NC(=N)N` [METFORMIN]: the Activity was 24.9% in the assay with Rattus norvegicus [3] and 26% in the assay on Rattus norvegicus [4].
